Laboratory results taken from EP0013144A1, “Substituted diphenylamine derivatives, compositions and herbicidal uses thereof, and processes for their preparation” (ICI AUSTRALIA LIMITED, priority 1978, dated 1980).

Key:
Assay type in all cases: in vivo
[1] = system: Ryegrass; assay: Pre-emergence herbicidal activity (Example 31); set-up: key: 0-3 scale: 0 = 0-25% damage, 3 = 75-99% kill, 3+ = 100% kill; details: after three weeks
How it was run: (§1)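 Ratings run from 0 (0–25% damage) to 3 (75–99% kill), with 3+ meaning complete kill, assessed visually three weeks after spraying. Treatment was applied to soil right after sowing, before germination was triggered by overhead watering in the glasshouse.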

[2] = system: Wheat; assay: Pre-emergence herbicidal activity (Example 31); set-up: key: 0-3 scale: 0 = 0-25% damage, 3 = 75-99% kill, 3+ = 100% kill; details: after three weeks
How it was run: as §1

[3] = system: Ipomea; assay: Pre-emergence herbicidal activity (Example 31); details: after three weeks
How it was run: as §1

[4] = system: Japanese millet; assay: Pre-emergence herbicidal activity (Example 31); details: after three weeks
How it was run: as §1

[5] = system: Mustard; assay: Pre-emergence herbicidal activity (Example 31); details: after three weeks
How it was run: as §1

[6] = system: Sunflower; assay: Pre-emergence herbicidal activity (Example 31); details: after three weeks
How it was run: as §1

[7] = system: Wheat; assay: Post-emergence herbicidal activity (Example 32); set-up: key: 0-3 scale: 0 = 0-25% damage, 3 = 75-99% kill, 3+ = 100% kill; details: 3 weeks after spraying
How it was run: (§2)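 Compounds applied as diluted emulsifiable concentrates (toluene with nonylphenol ethoxylate/calcium dodecylbenzene sulfonate) or ball-milled aqueous suspensions, sprayed onto glasshouse plants about 10–12.5 cm tall. Damage assessed visually 3 weeks later versus untreated controls on a 0–3 scale (0 = 0–25% damage, 3 = 75–99% kill, 3+ = 100% kill).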

[8] = system: Ipomea; assay: Post-emergence herbicidal activity (Example 32); details: 3 weeks after spraying
How it was run: as §2

[9] = system: Japanese millet; assay: Post-emergence herbicidal activity (Example 32); details: 3 weeks after spraying
How it was run: as §2

[10] = system: Ryegrass; assay: Post-emergence herbicidal activity (Example 32); details: 3 weeks after spraying
How it was run: as §2

[11] = system: Sunflower; assay: Post-emergence herbicidal activity (Example 32); details: 3 weeks after spraying
How it was run: as §2

[12] = system: Annual Rye Grass; assay: Selective herbicidal activity, seed boxes (Example 34); details: weed; 0.15 kg/ha; sprayed on one week old seedlings; 29 days after spraying; triplicate
Description: (§3) The seeds of the test species were sprinkled onto . the surface of soil in seed boxes and covered with a thin layer of sand. The boxes were lightly watered with an overhead spray and placed in a glasshouse for one week to permit germination of the seeds and plant growth to a height of 4 to 5 inches. […] For comparison purposes at least one box containing one week old seedlings was sprayed lightly with water only. After spraying the boxes were returned to the glasshouse for a further 29 days after which the effect of the treatment was visually assessed.

[13] = system: Cotton; assay: as above; details: crop; 1.5 kg/ha; sprayed on one week old seedlings; 29 days after spraying; triplicate
Description: as §3

[14] = system: Japanese millet; assay: as above; details: weed; 0.15 kg/ha; sprayed on one week old seedlings; 29 days after spraying; triplicate
Description: as §3

[15] = system: Setaria aviceps; assay: as above; details: weed; 0.15 kg/ha; sprayed on one week old seedlings; 29 days after spraying; triplicate
Description: as §3

[16] = system: Sorghum halepense; assay: as above; details: weed; 0.15 kg/ha; sprayed on one week old seedlings; 29 days after spraying; triplicate
Description: as §3

[17] = system: Soyabean; assay: as above; details: crop; 1.5 kg/ha; sprayed on one week old seedlings; 29 days after spraying; triplicate
Description: as §3

[18] = system: Wild Oats; assay: as above; details: weed; 0.15 kg/ha; sprayed on one week old seedlings; 29 days after spraying; triplicate
Description: as §3

**Q.** Which “damage to plants, Rg” value ([1]; 1 kg/ha) does the source give for `CC(Oc1ccc(Nc2ccc(C(F)(F)F)cc2[N+](=O)[O-])cc1)C(=O)O` (centres unmarked) [Compound 46, 2[4-(2-Nitro-4-trifluoromethylanilino)phenoxy]-propionic acid] here?
**A.** 2

**Q.** What about the “damage to plants, Rg” value ([1]; 5 kg/ha) of the same compound?
**A.** 3+ (3+ represents 100% kill)

**Q.** And the “damage to plants, Wh” value ([2]; 1 kg/ha)?
**A.** 0 (0 represents from 0 to 25% damage)

**Q.** And the “damage to plants, Wh” value ([2]; 5 kg/ha)?
**A.** 2

**Q.** What about the “damage to plants, Ip” value ([3]; 1 kg/ha) of the same compound?
**A.** 0 (0 represents from 0 to 25% damage)

**Q.** What about the “damage to plants, Ip” value ([3]; 5 kg/ha) of the same compound?
**A.** 0 (0 represents from 0 to 25% damage)

**Q.** What about the “damage to plants, Jm” value ([4]; 1 kg/ha) of the same compound?
**A.** 3 (3 represents 75 to 99% kill)

**Q.** What about the “damage to plants, Jm” value ([4]; 5 kg/ha) of the same compound?
**A.** 3+ (3+ represents 100% kill)

**Q.** And the “damage to plants, Ms” value ([5]; 1 kg/ha)?
**A.** 0 (0 represents from 0 to 25% damage)

**Q.** What about the “damage to plants, Ms” value ([5]; 5 kg/ha) of the same compound?
**A.** 0 (0 represents from 0 to 25% damage)

**Q.** What about the “damage to plants, Sf” value ([6]; 1 kg/ha) of the same compound?
**A.** 0 (0 represents from 0 to 25% damage)

**Q.** And the “damage to plants, Sf” value ([6]; 5 kg/ha)?
**A.** 0 (0 represents from 0 to 25% damage)

**Q.** What about the “damage to plants, Wh” value ([7]; 1 kg/ha) of the same compound?
**A.** 2

**Q.** What about the “damage to plants, Wh” value ([7]; 5 kg/ha) of the same compound?
**A.** 3+ (3+ represents 100% kill)

**Q.** And the “damage to plants, Ip” value ([8]; 1 kg/ha)?
**A.** 0 (0 represents 0 to 25% damage)

**Q.** What about the “damage to plants, Ip” value ([8]; 5 kg/ha) of the same compound?
**A.** 0 (0 represents 0 to 25% damage)

**Q.** And the “damage to plants, Jm” value ([9]; 1 kg/ha)?
**A.** 3+ (3+ represents 100% kill)

**Q.** And the “damage to plants, Jm” value ([9]; 5 kg/ha)?
**A.** 3+ (3+ represents 100% kill)

**Q.** And the “damage to plants, Rg” value ([10]; 1 kg/ha)?
**A.** 3+ (3+ represents 100% kill)

**Q.** What about the “damage to plants, Rg” value ([10]; 5 kg/ha) of the same compound?
**A.** 3+ (3+ represents 100% kill)

**Q.** What about the “damage to plants, Sf” value ([11]; 1 kg/ha) of the same compound?
**A.** 0 (0 represents 0 to 25% damage)

**Q.** And the “damage to plants, Sf” value ([11]; 5 kg/ha)?
**A.** 2

**Q.** And the “percentage damage, Rg” value [12]?
**A.** 55 percentage

**Q.** And the “percentage damage, Ct” value [13]?
**A.** 50 percentage

**Q.** And the “percentage damage, Jm” value [14]?
**A.** 85 percentage

**Q.** What about the “percentage damage, St” value [15] of the same compound?
**A.** 55 percentage

**Q.** What about the “percentage damage, Sh” value [16] of the same compound?
**A.** 88 percentage

**Q.** What about the “percentage damage, Sb” value [17] of the same compound?
**A.** 38 percentage

**Q.** And the “percentage damage, Ot” value [18]?
**A.** 50 percentage
